Experimental data taken from US20190125790A1, “USE OF HYPOCHLOROUS ACID AS A TOPICAL ANTIMICROBIAL” (BIIOSMART TECHNOLOGIES LLC, priority 2016, published 2019).

Assay: Fournier's gangrene patient case
Format: in vivo, human
Settings: HOCl (0.046%) aqueous solution; one patient; four step surgical process; 24 hours period
Method: A HOCl (0.046%) aqueous solution was preformed in a four step surgical process to a patient that was infected with Fournier's gangrene. Skin was removed from the infected area before administering the HOCl solution on the infected areas in a 24 hours period. Following application, skin graphs were placed over the surgical wound for rehabilitation process.

In the case of `OCl` [HOCl, hypochlorous acid], the “outcome in Fournier's gangrene” value is reported as “prevention of further spread of the disease as well as prevention of amputation and additional complications”.
